Assay results taken from US11420970B1 (NOVARTIS AG, priority 2019, dated 2022).
Like-named read-outs stand apart in the source and are kept apart here.

Key:
[1] = tested on: cellular H3K36me2 level in multiple myeloma cell line KMS11 (t(4;14)+); test: H3K36me2 cellular ELISA assay in KMS11-Par line; type: cell-based; conditions: Homo sapiens, KMS-11, ELISA, read-out: H3K36me2 ELISA in KMS11-Par
Method in brief: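 KMS11 cells were seeded a day ahead at 1,250 per well in Opti-MEM with B-27/N2, then treated with compound for 72 h. Histones were acid-extracted with 0.4M HCl, and H3K36me2 and total H3 were read by chemiluminescent ELISA. Viability was checked with CellTiter-Glo on a parallel plate in maintenance media.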

NSD2 [1-1365] = NSD2 [1-1365] (Homo sapiens (Human), UniProt O96028); test: LC-MS/MS-based NSD2 enzymatic assay (SAH production); type: biochemical
Method in brief: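 Full-length NSD2 [1-1365] (8 nM final) with 1 μM SAM and 400 nM mouse-liver nucleosome in Tris pH 8.0 buffer; inhibitor preincubated 20 min with enzyme/SAM before nucleosome addition. Reaction 90 min at room temperature, TFA-quenched; SAH quantified by LC-MS/MS against d4-SAH internal standard and SAH standard curve.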

[2] = tested on: cellular H3K36me2 level in thyroid carcinoma cell line CGTH-W-1 (NSD2 E1099K); test: H3K36me2 cellular ELISA assay in CGTH-W-1 line; type: cell-based; conditions: Homo sapiens, CGTH-W-1, 72 h, read-out: H3K36me2 ELISA in CGTH-W-1
Method in brief: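 CGTH-W-1 thyroid carcinoma cells (NSD2 E1099K gain-of-function) exposed to compound for 72 hours. Histone-bound plates probed for H3K36me2 and total H3 by chemiluminescent ELISA. Viability checked on a parallel plate with CellTiter-Glo.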

[3] = KMS11-Par line (t(4;14)+), 72 hours treatment
[4] = NSD2 biochemical activity, class symbols, read-out: NSD2 IC50

Sequence of NSD2 [1-1365] (O96028 whole entry): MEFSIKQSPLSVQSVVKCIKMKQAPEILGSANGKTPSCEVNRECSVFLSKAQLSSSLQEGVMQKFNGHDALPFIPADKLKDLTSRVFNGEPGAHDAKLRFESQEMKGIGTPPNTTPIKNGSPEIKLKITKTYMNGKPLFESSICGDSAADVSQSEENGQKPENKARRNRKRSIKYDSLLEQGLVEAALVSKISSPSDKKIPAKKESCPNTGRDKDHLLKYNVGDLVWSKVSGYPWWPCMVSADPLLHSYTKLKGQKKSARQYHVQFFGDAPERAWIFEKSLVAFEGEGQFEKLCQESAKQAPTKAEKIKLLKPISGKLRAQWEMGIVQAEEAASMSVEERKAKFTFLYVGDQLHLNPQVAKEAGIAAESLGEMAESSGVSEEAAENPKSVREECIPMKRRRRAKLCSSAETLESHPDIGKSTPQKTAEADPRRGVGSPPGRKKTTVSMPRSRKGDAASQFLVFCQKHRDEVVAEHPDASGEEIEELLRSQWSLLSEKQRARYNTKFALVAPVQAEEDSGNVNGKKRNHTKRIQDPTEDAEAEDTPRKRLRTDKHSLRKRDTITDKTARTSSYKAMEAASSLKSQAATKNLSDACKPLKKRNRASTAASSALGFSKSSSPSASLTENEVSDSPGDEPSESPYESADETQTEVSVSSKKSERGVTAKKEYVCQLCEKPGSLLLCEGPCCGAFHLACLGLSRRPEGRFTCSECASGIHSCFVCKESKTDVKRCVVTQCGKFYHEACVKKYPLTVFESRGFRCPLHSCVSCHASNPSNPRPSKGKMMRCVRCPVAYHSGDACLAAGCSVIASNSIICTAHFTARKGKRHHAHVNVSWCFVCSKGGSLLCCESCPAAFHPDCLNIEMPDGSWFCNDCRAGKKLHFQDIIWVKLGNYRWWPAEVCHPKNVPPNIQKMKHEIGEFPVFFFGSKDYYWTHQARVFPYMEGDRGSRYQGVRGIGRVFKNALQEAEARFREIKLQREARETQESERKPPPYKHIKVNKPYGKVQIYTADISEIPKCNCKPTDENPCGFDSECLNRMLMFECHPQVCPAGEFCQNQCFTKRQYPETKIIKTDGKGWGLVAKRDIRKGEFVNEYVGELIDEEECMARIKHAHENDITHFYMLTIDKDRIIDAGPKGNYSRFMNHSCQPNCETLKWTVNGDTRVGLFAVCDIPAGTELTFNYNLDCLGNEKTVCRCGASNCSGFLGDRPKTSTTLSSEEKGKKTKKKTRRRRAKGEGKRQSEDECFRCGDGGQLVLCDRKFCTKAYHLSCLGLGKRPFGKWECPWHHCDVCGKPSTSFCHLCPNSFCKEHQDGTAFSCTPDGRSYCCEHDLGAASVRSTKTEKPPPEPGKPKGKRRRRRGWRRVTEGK

Compound | IC50 [1, 3] [nM] | IC50 (NSD2 [1-1365]; [4]) [nM] | IC50 [2] [nM] | IC50 ([1]; KMS11-Par line, 72 hours) [nM] | IC50 (NSD2 [1-1365]; read-out: NSD2 IC50) [nM] | IC50 (NSD2 [1-1365]; NSD2 IC50) [nM]
CC(C)[C@H](O)[C@@]1(N)CCCN(c2cnc(-c3ccc(F)c(F)c3)cc2Cn2cnc3c(N)ncnc32)C1 [Example 98, (S)-1-((R)-3-amino-1-(4-((6-amino-9H-purin-9-yl)methyl)-6-(3,4-difluorophenyl)pyridin-3-yl)piperidin-3-yl)-2-methylpropan-1-ol] | 6260 | 10 to 1000 | 1500 |  |  | 
COc1ccc(-c2cc(Cn3cnc4c(N)ncnc43)c(N3CCC[C@](N)([C@@H](O)C(F)F)C3)cn2)c(C(F)F)c1 [Example 162, (R)-1-((R)-3-amino-1-(4-((6-amino-9H-purin-9-yl)methyl)-6-(2-(difluoromethyl)-4-methoxyphenyl)pyridin-3-yl)piperidin-3-yl)-2,2-difluoroethan-1-ol] | 440 | 1 to 10 | 86 |  |  | 
COc1ccc(-c2cc(Cn3cnc4c(N)ncnc43)c(N3CCC[C@](N)(c4cccc(Cl)n4)C3)cn2)c(F)c1 [Example 181, (R)-9-((5-(3-amino-3-(6-chloropyridin-2-yl)piperidin-1-yl)-2-(2-fluoro-4-methoxyphenyl)pyridin-4-yl)methyl)-9H-purin-6-amine] |  |  | 1560 | 1980 | 10 to 1000 | 
Cc1ccc(-c2cc(Cn3cnc4c(N)ncnc43)c(N3CCCC(N)(c4cccc(Cl)n4)C3)cn2)cn1 (stereo not drawn) [Example 229, 9-((5-(3-amino-3-(6-chloropyridin-2-yl)piperidin-1-yl)-6′-methyl-[2,3′-bipyridin]-4-yl)methyl)-9H-purin-6-amine] |  |  | 1970 | 7490 | 10 to 1000 | 
CNC(=O)[C@@]1(N)CCCN(c2cnc(-c3cccc(F)c3)cc2Cn2cnc3c(N)ncnc32)C1 [Example 78, (R)-3-amino-1-(4-((6-amino-9H-purin-9-yl)methyl)-6-(3-fluorophenyl)pyridin-3-yl)-N-methylpiperidine-3-carboxamide] | 78 | 1 to 10 | 12 |  |  | 
Nc1ncnc2c1ncn2Cc1cc(-c2ccc(F)c(F)c2)ncc1N1CCC[C@](N)([C@@H](O)C(F)F)C1 [Example 113, (R)-1-((R)-3-amino-1-(4-((6-amino-9H-purin-9-yl)methyl)-6-(3,4-difluorophenyl)pyridin-3-yl)piperidin-3-yl)-2,2-difluoroethan-1-ol] | 753 | 10 to 1000 | 145 |  |  | 
Nc1ncnc2c1ncn2Cc1cc(-c2ccc(F)c(Cl)n2)ncc1N1CCC[C@](N)([C@@H](O)C(F)F)C1 [Example 176, (R)-1-((R)-3-amino-1-(4-((6-amino-9H-purin-9-yl)methyl)-6′-chloro-5′-fluoro-[2,2′-bipyridin]-5-yl)piperidin-3-yl)-2,2-difluoroethan-1-ol] |  |  | 953 | 8970 | 10 to 1000 | 
COc1cc(F)c(-c2cc(Cn3cnc4c(N)ncnc43)c(N3CCC[C@](N)([C@@H](O)C(F)F)C3)cn2)cc1F [Example 160, (R)-1-((R)-3-amino-1-(4-((6-amino-9H-purin-9-yl)methyl)-6-(2,5-difluoro-4-methoxyphenyl)pyridin-3-yl)piperidin-3-yl)-2,2-difluoroethan-1-ol] | 434 | 1 to 10 | 35 |  |  | 
Cc1cc(F)c(F)cc1-c1cc(Cn2cnc3c(N)ncnc32)c(N2CCC[C@](N)([C@@H](O)C(F)F)C2)cn1 [Example 117, (R)-1-((R)-3-amino-1-(4-((6-amino-9H-purin-9-yl)methyl)-6-(4,5-difluoro-2-methylphenyl)pyridin-3-yl)piperidin-3-yl)-2,2-difluoroethan-1-ol] | 1320 | 1 to 10 | 67 |  |  | 
Nc1ncnc2c1ncn2Cc1cc(C2CCCCC2)ncc1N1CCC[C@](N)([C@H](O)C(F)F)C1 [Example 145, (S)-1-((R)-3-amino-1-(4-((6-amino-9H-purin-9-yl)methyl)-6-cyclohexylpyridin-3-yl)piperidin-3-yl)-2,2-difluoroethan-1-ol] | 8110 | 10 to 1000 | 990 |  |  | 
COc1cnc(-c2cc(Cn3cnc4c(N)ncnc43)c(N3CCC[C@](N)(c4cccc(Cl)n4)C3)cn2)cc1F [Example 243, (R)-9-((5-(3-amino-3-(6-chloropyridin-2-yl)piperidin-1-yl)-4′-fluoro-5′-methoxy-[2,2′-bipyridin]-4-yl)methyl)-9H-purin-6-amine] |  |  | 541 | 2440 | 1 to 10 | 
Nc1ncnc2c1ncn2Cc1cc(-c2ccc(F)c(F)c2)ncc1N1CCC[C@](N)(c2cccc(CF)n2)C1 [Example 226, (R)-9-((5-(3-amino-3-(6-(fluoromethyl)pyridin-2-yl)piperidin-1-yl)-2-(3,4-difluorophenyl)pyridin-4-yl)methyl)-9H-purin-6-amine] |  |  | 66.8 | 169 | 1 to 10 | 
Nc1ncnc2c1ncn2Cc1cc(-c2ccc(F)c(F)c2)ncc1N1CCC[C@](N)([C@H](O)C(F)F)C1 [Example 114, (S)-1-((R)-3-amino-1-(4-((6-amino-9H-purin-9-yl)methyl)-6-(3,4-difluorophenyl)pyridin-3-yl)piperidin-3-yl)-2,2-difluoroethan-1-ol] | 1940 | 10 to 1000 | 443 |  |  | 
Nc1ncnc2c1ncn2Cc1cc(-c2ccc(Cl)c(F)c2)ncc1N1CCC[C@](N)([C@@H](O)C(F)F)C1 [Example 124, (R)-1-((R)-3-amino-1-(4-((6-amino-9H-purin-9-yl)methyl)-6-(4-chloro-3-fluorophenyl)pyridin-3-yl)piperidin-3-yl)-2,2-difluoroethan-1-ol] | 848 | 1 to 10 | 159 |  |  | 
CC[C@H](C)C(=O)[C@@]1(N)CCCN(c2cnc(-c3ccc(F)c(F)c3)cc2Cn2cnc3c(N)ncnc32)C1 [Example 101, (S)-1-((R)-3-amino-1-(4-((6-amino-9H-purin-9-yl)methyl)-6-(3,4-difluorophenyl)pyridin-3-yl)piperidin-3-yl)-2-methylbutan-1-one] | 34 | 1 to 10 | 40 |  |  | 
C[C@@H](F)c1cccc([C@@]2(N)CCCN(c3cnc(-c4ccc(F)cc4)cc3Cn3cnc4c(N)ncnc43)C2)n1 [Example 212, 9-((5-((R)-3-amino-3-(6-((R)-1-fluoroethyl)pyridin-2-yl)piperidin-1-yl)-2-(4-fluorophenyl)pyridin-4-yl)methyl)-9H-purin-6-amine] |  |  | 132 | 289 | 10 to 1000 | 
Cn1ncc([C@@]2(N)CCCN(c3cnc(-c4ccc(F)c(F)c4)cc3Cn3cnc4c(N)ncnc43)C2)n1 [Example 283, (R)-9-((5-(3-amino-3-(2-methyl-2H-1,2,3-triazol-4-yl)piperidin-1-yl)-2-(3,4-difluorophenyl)pyridin-4-yl)methyl)-9H-purin-6-amine] |  |  | 110 | 1020 |  | 1 to 10
CC(C)C(=O)[C@@]1(N)CCCN(c2cnc(-c3ccc(F)c(F)c3)cc2Cn2cnc3c(N)ncnc32)C1 [Example 104, (R)-1-(3-amino-1-(4-((6-amino-9H-purin-9-yl)methyl)-6-(3,4-difluorophenyl)pyridin-3-yl)piperidin-3-yl)-2-methylpropan-1-one] | 60 | 10 to 1000 | 26 |  |  | 
Cn1ccc(C(=O)C2(N)CCCN(c3cnc(-c4ccc(F)c(F)c4)cc3Cn3cnc4c(N)ncnc43)C2)n1 (stereo not drawn) [Example 110, (3-amino-1-(4-((6-amino-9H-purin-9-yl)methyl)-6-(3,4-difluorophenyl)pyridin-3-yl)piperidin-3-yl)(1-methyl-1H-pyrazol-3-yl)methanone] | 6340 | 10 to 1000 | 1360 |  |  | 
Nc1ncnc2c1ncn2Cc1cc(-c2ccc(F)c(F)c2)ncc1N1CCC[C@](N)(c2cccc(C(F)F)n2)C1 [Example 227, (R)-9-((5-(3-amino-3-(6-(difluoromethyl)pyridin-2-yl)piperidin-1-yl)-2-(3,4-difluorophenyl)pyridin-4-yl)methyl)-9H-purin-6-amine] |  |  | 133 | 302 | 10 to 1000 | 
Nc1ncnc2c1ncn2Cc1cc(-c2ccc(F)c(F)c2)ncc1N1CC[C@@H](O)[C@@H](N)C1 [Example 3, (3S,4R)-3-amino-1-(4-((6-amino-9H-purin-9-yl)methyl)-6-(3,4-difluorophenyl)pyridin-3-yl)piperidin-4-ol] | 33300 | 10 to 1000 | 8250 |  |  | 
Nc1ncnc2c1ncn2Cc1cc(-c2cc(F)cc(C(F)F)c2F)ncc1N1CCC[C@](N)([C@@H](O)C(F)F)C1 [Example 154, (R)-1-((R)-3-amino-1-(4-((6-amino-9H-purin-9-yl)methyl)-6-(3-(difluoromethyl)-2,5-difluorophenyl)pyridin-3-yl)piperidin-3-yl)-2,2-difluoroethan-1-ol] | 9110 | 10 to 1000 | 2930 |  |  | 
